Three molecules from patent publication US20240300932A1, “N-PHENYLIMINE DERIVATIVE AND PREPARATION METHOD AND USE THEREOF” (Guizhou University, priority 2023, published 2024) can be followed below.

What all share (assay): Post-emergence herbicidal activity test (stem and leaf spray, pot culture)
What all share (format): in vivo
Common to all, as to details: 3 weeks after spraying

One assay deals with Amaranthus retroflexus. Put shortly:
(§1)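 Pot-grown weeds in loam (pH 7, 1.63% organic matter) were spray-treated on stems and leaves at the 2- to 3-leaf stage with compound in acetone/Tween 80 plus 1.5 liters/ha methyl oleate at 10, 5 or 2.5 g/mu. Fresh-weight growth control was scored 3 weeks later as grades 0–5.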

Another assay deals with Abutilon theophrasti. An outline of the steps:
as §1

The next assay has as its system Setaria viridis. An outline of the steps:
as §1

The next assay deals with Echinochloa crusgalli. An outline of the steps: as §1
The test system of another assay is Portulaca oleracea. Put shortly:
as §1

The next assay relates to Trifoliumre pensL. Put shortly:
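Rates of 10, 5 and 2.5 g/mu were applied in a single spray-tower treatment to 2–3-leaf plants, thinned to 10 per pot. Formulation: acetone solution, Tween 80, 1.5 L/ha methyl oleate synergist. Weed response assessed after 3 further greenhouse weeks; mean of three experiments.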

On to `O=C1C2=C(CCCC2)C(=O)N1c1cc(OCc2nc(-c3ccccc3Cl)no2)c(Cl)cc1F` [Compound A8], for which the “Post-emergence herbicidal activity, A. retroflexus (grade)” value in the assay on Amaranthus retroflexus (dosage 2.5 g/mu), in the assay with Amaranthus retroflexus (dosage 5 g/mu) and in the assay with Amaranthus retroflexus (dosage 10 g/mu) was 5 (Grade 5: the growth control rate is greater than or equal to 85%) in each case. Besides, the “Post-emergence herbicidal activity, A. theophrasti (grade)” value in the assay with Abutilon theophrasti (dosage 2.5 g/mu), with Abutilon theophrasti (dosage 5 g/mu) and in the assay with Abutilon theophrasti (dosage 10 g/mu) was 5 (Grade 5: the growth control rate is greater than or equal to 85%) in each case. Besides, the “Post-emergence herbicidal activity, S. viridis (grade)” value was 2 (Grade 2: the growth control rate is greater than or equal to 20% and less than 40%) in the assay with Setaria viridis (dosage 2.5 g/mu); 3 (Grade 3: the growth control rate is greater than or equal to 40% and less than 60%) with Setaria viridis (dosage 5 g/mu); 4 (Grade 4: the growth control rate is greater than or equal to 60% and less than 85%) in the assay on Setaria viridis (dosage 10 g/mu). Besides, the “Post-emergence herbicidal activity, E. crusgalli (grade)” value was 1 (Grade 1: the growth control rate is greater than or equal to 5% and less than 20%) in the assay with Echinochloa crusgalli (dosage 2.5 g/mu); 2 (Grade 2: the growth control rate is greater than or equal to 20% and less than 40%) with Echinochloa crusgalli (dosage 5 g/mu); 3 (Grade 3: the growth control rate is greater than or equal to 40% and less than 60%) in the assay on Echinochloa crusgalli (dosage 10 g/mu). Besides, the “Post-emergence herbicidal activity, P. oleracea (grade)” value is 4 (Grade 4: the growth control rate is greater than or equal to 60% and less than 85%) with Portulaca oleracea (dosage 2.5 g/mu); 5 (Grade 5: the growth control rate is greater than or equal to 85%) in the assay on Portulaca oleracea (dosage 5 g/mu); 5 (Grade 5: the growth control rate is greater than or equal to 85%) in the assay with Portulaca oleracea (dosage 10 g/mu). The “Post-emergence herbicidal activity, Trifoliumre pensL. (grade)” value was 4 (Grade 4: the growth control rate is greater than or equal to 60% and less than 85%) with Trifoliumre pensL. (dosage 2.5 g/mu); 5 (Grade 5: the growth control rate is greater than or equal to 85%) in the assay with Trifoliumre pensL. (dosage 5 g/mu); 5 (Grade 5: the growth control rate is greater than or equal to 85%) in the assay with Trifoliumre pensL. (dosage 10 g/mu).

For `Cc1ccc(-c2noc(COc3cc(N4C(=O)C5=C(CCCC5)C4=O)c(F)cc3Cl)n2)c(F)c1` [Compound A9], the “Post-emergence herbicidal activity, A. retroflexus (grade)” value in the assay with Amaranthus retroflexus (dosage 2.5 g/mu), with Amaranthus retroflexus (dosage 5 g/mu) and in the assay with Amaranthus retroflexus (dosage 10 g/mu) was 5 (Grade 5: the growth control rate is greater than or equal to 85%) each time. Also, the “Post-emergence herbicidal activity, A. theophrasti (grade)” value in the assay on Abutilon theophrasti (dosage 2.5 g/mu), in the assay on Abutilon theophrasti (dosage 5 g/mu) and in the assay on Abutilon theophrasti (dosage 10 g/mu) was 5 (Grade 5: the growth control rate is greater than or equal to 85%) throughout. The “Post-emergence herbicidal activity, S. viridis (grade)” value is 2 (Grade 2: the growth control rate is greater than or equal to 20% and less than 40%) in the assay on Setaria viridis (dosage 2.5 g/mu); 3 (Grade 3: the growth control rate is greater than or equal to 40% and less than 60%) with Setaria viridis (dosage 5 g/mu); 4 (Grade 4: the growth control rate is greater than or equal to 60% and less than 85%) in the assay with Setaria viridis (dosage 10 g/mu). For the same molecule, the “Post-emergence herbicidal activity, E. crusgalli (grade)” value in the assay with Echinochloa crusgalli (dosage 2.5 g/mu) was 1 (Grade 1: the growth control rate is greater than or equal to 5% and less than 20%); in the assay with Echinochloa crusgalli (dosage 5 g/mu), 2 (Grade 2: the growth control rate is greater than or equal to 20% and less than 40%); in the assay with Echinochloa crusgalli (dosage 10 g/mu) it was 3 (Grade 3: the growth control rate is greater than or equal to 40% and less than 60%). The “Post-emergence herbicidal activity, P. oleracea (grade)” value is 4 (Grade 4: the growth control rate is greater than or equal to 60% and less than 85%) with Portulaca oleracea (dosage 2.5 g/mu); 5 (Grade 5: the growth control rate is greater than or equal to 85%) with Portulaca oleracea (dosage 5 g/mu); 5 (Grade 5: the growth control rate is greater than or equal to 85%) in the assay on Portulaca oleracea (dosage 10 g/mu). The “Post-emergence herbicidal activity, Trifoliumre pensL. (grade)” value in the assay with Trifoliumre pensL. (dosage 2.5 g/mu) was 4 (Grade 4: the growth control rate is greater than or equal to 60% and less than 85%); in the assay with Trifoliumre pensL. (dosage 5 g/mu), 5 (Grade 5: the growth control rate is greater than or equal to 85%); with Trifoliumre pensL. (dosage 10 g/mu), 5 (Grade 5: the growth control rate is greater than or equal to 85%).

Turning to `O=C1C2=C(CCCC2)C(=O)N1c1cc(OCc2nc(-c3cnc(C(F)(F)F)cc3Cl)no2)c(Cl)cc1F` [Compound A10], the “Post-emergence herbicidal activity, A. retroflexus (grade)” value in the assay with Amaranthus retroflexus (dosage 2.5 g/mu), in the assay on Amaranthus retroflexus (dosage 5 g/mu) and in the assay with Amaranthus retroflexus (dosage 10 g/mu) was 5 (Grade 5: the growth control rate is greater than or equal to 85%) each time. For the same molecule, the “Post-emergence herbicidal activity, A. theophrasti (grade)” value in the assay with Abutilon theophrasti (dosage 2.5 g/mu), with Abutilon theophrasti (dosage 5 g/mu) and in the assay on Abutilon theophrasti (dosage 10 g/mu) was 5 (Grade 5: the growth control rate is greater than or equal to 85%) in each case. Further, the “Post-emergence herbicidal activity, S. viridis (grade)” value with Setaria viridis (dosage 2.5 g/mu) was 2 (Grade 2: the growth control rate is greater than or equal to 20% and less than 40%); in the assay with Setaria viridis (dosage 5 g/mu), 3 (Grade 3: the growth control rate is greater than or equal to 40% and less than 60%); in the assay with Setaria viridis (dosage 10 g/mu), 4 (Grade 4: the growth control rate is greater than or equal to 60% and less than 85%). The “Post-emergence herbicidal activity, E. crusgalli (grade)” value was 1 (Grade 1: the growth control rate is greater than or equal to 5% and less than 20%) in the assay on Echinochloa crusgalli (dosage 2.5 g/mu); 2 (Grade 2: the growth control rate is greater than or equal to 20% and less than 40%) in the assay on Echinochloa crusgalli (dosage 5 g/mu); 3 (Grade 3: the growth control rate is greater than or equal to 40% and less than 60%) in the assay on Echinochloa crusgalli (dosage 10 g/mu). In addition, the “Post-emergence herbicidal activity, P. oleracea (grade)” value in the assay with Portulaca oleracea (dosage 2.5 g/mu) was 4 (Grade 4: the growth control rate is greater than or equal to 60% and less than 85%); with Portulaca oleracea (dosage 5 g/mu) it was 5 (Grade 5: the growth control rate is greater than or equal to 85%); in the assay on Portulaca oleracea (dosage 10 g/mu), 5 (Grade 5: the growth control rate is greater than or equal to 85%). Moreover, the “Post-emergence herbicidal activity, Trifoliumre pensL. (grade)” value with Trifoliumre pensL. (dosage 2.5 g/mu) was 4 (Grade 4: the growth control rate is greater than or equal to 60% and less than 85%); in the assay with Trifoliumre pensL. (dosage 5 g/mu), 5 (Grade 5: the growth control rate is greater than or equal to 85%); in the assay on Trifoliumre pensL. (dosage 10 g/mu), 5 (Grade 5: the growth control rate is greater than or equal to 85%).
